Results reported in ChEMBL document CHEMBL1139529, “Design of small-sized libraries by combinatorial assembly of linkers and functional groups to a given scaffold: application to the structure-based optimization of a phosphodiesterase 4 inhibitor” (J Med Chem, 2005).

molecular target: Phosphodiesterase 4 (Bos taurus); experiment: In vitro inhibition of bovine smooth muscle phosphodiesterase 4

First: COc1ccc(-c2cc(Cc3ccccc3)c(O)nn2)cc1OC
Second: COc1ccc(-c2ccc(=O)n(Cc3ccccc3)n2)cc1OC
The IC50 of the first is 130-fold higher: 8000 nM for the first, 60 nM for the second.

Compared with `COc1ccc(-c2ccc(=O)n(CCCCCCN=C(N)N)n2)cc1OC`, `COc1ccc(-c2ccc(=O)n(CCCCCCN)n2)cc1OC` is 3000-fold lower in IC50: 60000 nM for the first, 20 nM for the second.

Going from `COc1ccc(-c2ccc(=O)n(CCCCCc3ccccc3)n2)cc1OC` to `COc1ccc(-c2ccc(=O)n(CCCCCCc3ccccc3)n2)cc1OC`, the IC50 rises from 0.9 nM to 80 nM (89-fold).

First: COc1ccc(-c2ccc(=O)n(CCCc3ccccc3)n2)cc1OC
Second: COc1ccc(-c2ccc(O)nn2)cc1OC
The IC50 of the first is 100-fold lower: 20 nM for the first, 2000 nM for the second.

With `COc1ccc(-c2cc(CCCc3ccccc3)c(O)nn2)cc1OC` the IC50 was over 10000 nM.
